Measurements: PubChem BioAssay AID248 (DTP/NCI, 2004)
Values joined by “and” are separate entries in the source; they are usually repeats but may differ in a detail not shown here. Equal values may be shown once. Inconclusive results and toxic doses are left out. Rule as the data show it: active = T/C of 150% or more; inactive = T/C below 125%.

Test system: L1210 leukemia ip in BDF1 mice, survival T/C
Experiment: NCI In Vivo Anticancer Drug Screen. Data for tumor model L1210 Leukemia (intraperitoneal) in B6D2F1 (BDF1) mice
Settings: endpoint: mean survival time, higher = longer survival
Summary of the method: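 Transplanted-tumor mice were given test agent; controls received vehicle only. Survival readings from the two groups were divided (treated over control).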

[1] = dose: 100.0 mg/kg/injection, schedule: Q01DX001 (ip), vehicle: saline with Tween-80
[2] = dose: 100.0 mg/kg/injection, schedule: Q01DX009 (ip), vehicle: saline
[3] = dose: 200.0 mg/kg/injection, schedule: Q01DX009 (ip), vehicle: saline
[4] = dose: 400.0 mg/kg/injection, schedule: Q01DX009 (ip), vehicle: saline
[5] = dose: 100.0 mg/kg/injection, schedule: Q01DX009 (ip), vehicle: Klucel (hydroxypropylcellulose) (HPC)
[6] = dose: 200.0 mg/kg/injection, schedule: Q01DX009 (ip), vehicle: Klucel (hydroxypropylcellulose) (HPC)
[7] = dose: 400.0 mg/kg/injection, schedule: Q01DX009 (ip), vehicle: Klucel (hydroxypropylcellulose) (HPC)
[8] = dose: 100.0 mg/kg/injection, schedule: Q04DX003 (ip), vehicle: saline
[9] = dose: 100.0 mg/kg/injection, schedule: Q04DX003 (ip), vehicle: Klucel (hydroxypropylcellulose) (HPC)
[10] = dose: 200.0 mg/kg/injection, schedule: Q04DX003 (ip), vehicle: Klucel (hydroxypropylcellulose) (HPC)
[11] = dose: 400.0 mg/kg/injection, schedule: Q04DX003 (ip), vehicle: Klucel (hydroxypropylcellulose) (HPC)
[12] = dose: 100.0 mg/kg/injection, schedule: Q01DX001 (ip), vehicle: carboxymethylcellulose (CMC)
[13] = dose: 200.0 mg/kg/injection, schedule: Q04DX003 (ip), vehicle: saline
[14] = dose: 400.0 mg/kg/injection, schedule: Q04DX003 (ip), vehicle: saline
[15] = dose: 100.0 mg/kg/injection, schedule: Q04DX003 (ip), vehicle: saline with Tween-80
[16] = dose: 200.0 mg/kg/injection, schedule: Q04DX003 (ip), vehicle: saline with Tween-80
[17] = dose: 400.0 mg/kg/injection, schedule: Q04DX003 (ip), vehicle: saline with Tween-80
[18] = dose: 200.0 mg/kg/injection, schedule: Q01DX001 (ip), vehicle: carboxymethylcellulose (CMC)
[19] = dose: 400.0 mg/kg/injection, schedule: Q01DX001 (ip), vehicle: carboxymethylcellulose (CMC)

Measured: T/C

Cc1c(N=NN(C)C)c(=O)n(-c2ccccc2)n1C
inactive: dose: 18.0 mg/kg/injection, schedule: Q01DX001 (ip), vehicle: saline with Tween-80 100 % of control | dose: 18.0 mg/kg/injection, schedule: Q04DX003 (ip), vehicle: saline with Tween-80 107 % of control | dose: 25.0 mg/kg/injection, schedule: Q01DX009 (ip), vehicle: saline with Tween-80 105 % of control | dose: 37.0 mg/kg/injection, schedule: Q01DX001 (ip), vehicle: saline with Tween-80 116 % of control | dose: 37.0 mg/kg/injection, schedule: Q04DX003 (ip), vehicle: saline with Tween-80 108 % of control | dose: 50.0 mg/kg/injection, schedule: Q01DX009 (ip), vehicle: saline with Tween-80 114 % of control | dose: 75.0 mg/kg/injection, schedule: Q01DX001 (ip), vehicle: saline with Tween-80 119 % of control | dose: 75.0 mg/kg/injection, schedule: Q04DX003 (ip), vehicle: saline with Tween-80 112 % of control | [1] 97 % of control

O=C1CCC(=O)N1O
inactive: dose: 50.0 mg/kg/injection, schedule: Q01DX Z (ip), vehicle: saline 94 % of control | [2] 93 % of control | dose: 100.0 mg/kg/injection, schedule: Q01DX Z (ip), vehicle: saline 93 % of control | [3] 90 % of control | dose: 200.0 mg/kg/injection, schedule: Q01DX Z (ip), vehicle: saline 96 % of control | [4] 92 % of control | dose: 400.0 mg/kg/injection, schedule: Q01DX Z (ip), vehicle: saline 93 % of control

CCOC(=O)CCC(NC(=O)c1ccc(NCc2nnc3nc(N)nc(N)c3n2)cc1)C(=O)OCC (stereo not drawn)
inactive: dose: 25.0 mg/kg/injection, schedule: Q01DX001 (ip), vehicle: saline with Tween-80 100 % of control | dose: 50.0 mg/kg/injection, schedule: Q01DX001 (ip), vehicle: saline with Tween-80 95 % of control | [1] 107 % of control

[Ni+2].[SH2+]C([SH2+])=Nc1ccccc1.[SH2+]C([SH2+])=Nc1ccccc1.c1ccc(C[P+](c2ccccc2)(c2ccccc2)c2ccccc2)cc1
inactive: dose: 6.0 mg/kg/injection, schedule: Q01DX009 (ip), vehicle: saline 94 % of control

Cc1cc(Cl)cc(C)c1OC(=O)Nc1ccc(F)cc1
inactive: [5] 96 % of control | [6] 95 % of control | [7] 107 % of control

C=CCSc1nccnc1C
inactive: dose: 50.0 mg/kg/injection, schedule: Q01DX009 (ip), vehicle: Klucel (hydroxypropylcellulose) (HPC) 100 % of control | [5] 103 % of control | [6] 110 % of control

CN(C)C(=O)c1cc[n+](Cc2ccc(Cl)c(Cl)c2)cc1
inactive: [8] 105 % of control

O=C(COc1ccc(Cl)cc1Cl)NO
inactive: [5] 104 % of control | [9] 102 % of control | [6] 109 % of control | [10] 104 % of control | [7] 101 % of control | [11] 106 % of control

S=P(NCCCCCNP(=S)(N1CC1)N1CC1)(N1CC1)N1CC1
inactive: [12] 91 % of control

Cc1ccc(-c2ccc(C)s2)s1
inactive: dose: 50.0 mg/kg/injection, schedule: Q01DX009 (ip), vehicle: acetone 95 % of control | dose: 100.0 mg/kg/injection, schedule: Q01DX009 (ip), vehicle: acetone 90 % of control | [8] 96 % of control | dose: 200.0 mg/kg/injection, schedule: Q01DX009 (ip), vehicle: acetone 90 % of control | [13] 93 % of control | [14] 100 % of control

COCCN(/N=N/c1nc[nH]c1C(N)=O)C(C)(C)C
inactive: dose: 50.0 mg/kg/injection, schedule: Q01DX001 (ip), vehicle: water 100 % of control | dose: 50.0 mg/kg/injection, schedule: Q04DX003 (ip), vehicle: water 101 % of control | dose: 100.0 mg/kg/injection, schedule: Q01DX001 (ip), vehicle: water 97 % of control | dose: 100.0 mg/kg/injection, schedule: Q04DX003 (ip), vehicle: water 101 % of control | dose: 200.0 mg/kg/injection, schedule: Q01DX001 (ip), vehicle: water 92 % of control | dose: 200.0 mg/kg/injection, schedule: Q04DX003 (ip), vehicle: water 102 % of control | dose: 400.0 mg/kg/injection, schedule: Q01DX001 (ip), vehicle: water 97 % of control | dose: 400.0 mg/kg/injection, schedule: Q04DX003 (ip), vehicle: water 96 % of control

OC1CC2C=C(c3ccccc3)C1C2 (stereo not drawn)
inactive: [15] 96 % of control | [16] 93 % of control | [17] 88 % of control

CS(=O)(=O)OCC(=O)O
inactive: dose: 100.0 mg/kg/injection, schedule: Q01DX001 (ip), vehicle: Klucel (hydroxypropylcellulose) (HPC) 93 % of control | dose: 200.0 mg/kg/injection, schedule: Q01DX001 (ip), vehicle: Klucel (hydroxypropylcellulose) (HPC) 97 % of control

O=P(c1ccccc1)(c1ccccc1)C(Nc1ccc(Cl)cc1)c1ccco1 (stereo not drawn)
inactive: dose: 400.0 mg/kg/injection, schedule: Q01DX009 (ip), vehicle: gum acacia 92 % of control

NCC(=O)NC(CSSCC(N)C(=O)O)C(=O)O (stereo not drawn)
inactive: dose: 25.0 mg/kg/injection, schedule: Q04DX002 (ip), vehicle: saline 103 % of control | dose: 50.0 mg/kg/injection, schedule: Q04DX002 (ip), vehicle: saline 103 % of control | dose: 100.0 mg/kg/injection, schedule: Q04DX002 (ip), vehicle: saline 100 % of control

O=C1c2cc3c(cc2CCC1N1CCOCC1)CCCC3 (stereo not drawn)
inactive: [15] 111 % of control | [16] 114 % of control

Nc1ncnc(N)c1NC(=O)c1ccc(C(=O)c2ccccc2)cc1
inactive: [9] 100 % of control | [10] 94 % of control | [11] 94 % of control

Nc1nc2c(c(-c3ccc(Cl)cc3)n1)CN(c1ccc(Br)cc1)C2=O
inactive: dose: 50.0 mg/kg/injection, schedule: Q01DX009 (ip), vehicle: saline 95 % of control | [2] 108 % of control | [8] 97 % of control | [3] 92 % of control | [13] 100 % of control | [14] 92 % of control

O=[N+]([O-])c1cc2c(cc1Br)-c1ccccc1/C2=N\O
inactive: [12] 103 % of control | [18] 101 % of control | [19] 97 % of control

O=C(O)c1ccccc1C(=O)OC1CCCC2CCCC21 (stereo not drawn)
inactive: [12] 95 % of control and 96 % of control | [18] 101 % of control and 98 % of control | [19] 90 % of control and 98 % of control

ClC1C2c3ccccc3C(C1Cl)[n+]1ccccc12 (stereo not drawn)
inactive: dose: 6.25 mg/kg/injection, schedule: Q01DX009 (ip), vehicle: Klucel (hydroxypropylcellulose) (HPC) 109 % of control | dose: 12.5 mg/kg/injection, schedule: Q01DX009 (ip), vehicle: Klucel (hydroxypropylcellulose) (HPC) 98 % of control | dose: 25.0 mg/kg/injection, schedule: Q01DX009 (ip), vehicle: Klucel (hydroxypropylcellulose) (HPC) 94 % of control | dose: 35.0 mg/kg/injection, schedule: Q01DX009 (ip), vehicle: Klucel (hydroxypropylcellulose) (HPC) 95 % of control

C=CCCCCCCCCC(=O)NC(C)C(C)(C)C (stereo not drawn)
inactive: [15] 87 % of control | [16] 98 % of control

S=C=Nc1cccc2c(N=C=S)cccc12
inactive: dose: 50.0 mg/kg/injection, schedule: Q01DX001 (ip), vehicle: saline 98 % of control | dose: 100.0 mg/kg/injection, schedule: Q01DX001 (ip), vehicle: saline 98 % of control | dose: 200.0 mg/kg/injection, schedule: Q01DX001 (ip), vehicle: saline 110 % of control | dose: 400.0 mg/kg/injection, schedule: Q01DX001 (ip), vehicle: saline 119 % of control

O=C(c1ccccc1)N1CCC(CCO)C(O)C1Cc1c[nH]c2ccccc12 (stereo not drawn)
inactive: [2] 96 % of control | [8] 100 % of control | [3] 93 % of control | [13] 94 % of control | [4] 98 % of control | [14] 92 % of control

Cc1nn(C)c(C#N)c1[N+](=O)[O-]
inactive: [9] 98 % of control | [10] 100 % of control

OC(O)C(F)(F)F
inactive: dose: 100.0 mg/kg/injection, schedule: Q01DX009 (ip), vehicle: saline with Tween-80 109 % of control | [15] 111 % of control | dose: 200.0 mg/kg/injection, schedule: Q01DX009 (ip), vehicle: saline with Tween-80 121 % of control | [16] 104 % of control | dose: 400.0 mg/kg/injection, schedule: Q01DX009 (ip), vehicle: saline with Tween-80 97 % of control | [17] 105 % of control
